Results reported in ChEMBL document CHEMBL1149608, “Pyrrolidinones as orally bioavailable antagonists of the human melanocortin-4 receptor with anti-cachectic activity” (Bioorg Med Chem, 2007).
The source made the active and inactive calls. The rule behind the calls is not given here.

Assays:
Melanocortin receptor 4 [1] = target: T1, Melanocortin receptor 4 (Homo sapiens, UniProt P32245); experiment: Antagonist activity at human MC4 receptor in HEK293 cells assessed as inhibition of alpha-MSH stimulated cAMP production
Melanocortin receptor 4 [2] = target: T1, Melanocortin receptor 4; experiment: Displacement of [125I]NDP-MSH from MC4R receptor in HEK293 cells; format: cell-based
in vivo [3] = details: C57BL/6J, mouse, plasma, iv, 5 mg/kg
Melanocortin receptor 3 = Melanocortin receptor 3 (Homo sapiens, UniProt P41968); experiment: Displacement of [125I]NDP-MSH from MC3R receptor in HEK293 cells; format: cell-based
in vivo [4] = details: C57BL/6J, mouse, po, 10 mg/kg
Mus musculus [5] = experiment: Increase in fat mass in LLC-tumor bearing C57BL/6J mouse at 3 mg/kg, ip; format: functional; details: route intraperitoneal
physchem = details: octanol/water
[6] = target: Melanocyte-stimulating hormone receptor (Homo sapiens) (UniProt Q01726); experiment: Displacement of [125I]NDP-MSH from MC1R receptor in HEK293 cells; format: cell-based
in vivo [7] = details: C57BL/6J, mouse, po, 10 mg/kg; remark: listed apart in the source
Mus musculus [8] = experiment: Increase in lean body mass in LLC-tumor bearing C57BL/6J mouse at 9 mg/kg, ip; format: functional; details: route intraperitoneal
Mus musculus [9] = experiment: Increase in food intake in LLC-tumor bearing C57BL/6J mouse at 3 mg/kg, ip relative to control; format: functional, organism-based; set-up: dose 3 mg/kg
in vivo [10] = details: C57BL/6J, mouse, plasma, po, 10 mg/kg
Mus musculus [11] = experiment: Increase in lean body mass in LLC-tumor bearing C57BL/6J mouse at 3 mg/kg, ip; format: functional; details: route intraperitoneal
in vivo [12] = details: C57BL/6J, mouse, iv, 5 mg/kg
in vivo [13] = details: C57BL/6J, mouse, brain, iv, 5 mg/kg
in vivo [14] = details: C57BL/6J, mouse, brain, iv, 5 mg/kg; remark: listed apart in the source
in vivo [15] = details: C57BL/6J, mouse, brain, iv, 5 mg/kg; remark: listed apart in the source
Mus musculus [16] = experiment: Increase in body weight in LLC-tumor bearing C57BL/6J mouse at 3 mg/kg, ip; format: functional, organism-based; set-up: dose 3 mg/kg
Mus musculus [17] = experiment: Increase in body weight in LLC-tumor bearing C57BL/6J mouse at 9 mg/kg, ip; format: functional, organism-based; set-up: dose 9 mg/kg
Melanocortin receptor 5 = Melanocortin receptor 5 (Homo sapiens, UniProt P33032); experiment: Displacement of [125I]NDP-MSH from MC5R receptor in HEK293 cells; format: cell-based
Melanocortin receptor 4 [18] = target: Melanocortin receptor 4 (Rattus norvegicus, UniProt P70596); experiment: Binding affinity to rat MC4 receptor
Melanocortin receptor 4 [19] = target: Melanocortin receptor 4 (Mus musculus, UniProt P56450); experiment: Binding affinity to C57BL/6J mouse MC4 receptor
Mus musculus [20] = experiment: Increase in food intake in LLC-tumor bearing C57BL/6J mouse at 9 mg/kg, ip relative to control; format: functional, organism-based; set-up: dose 9 mg/kg
in vivo [21] = details: C57BL/6J, mouse, brain, iv, 5 mg/kg; remark: listed apart in the source
in vivo [22] = details: C57BL/6J, mouse, po, 10 mg/kg; remark: listed apart in the source
Mus musculus [23] = experiment: Increase in fat mass in LLC-tumor bearing C57BL/6J mouse at 9 mg/kg, ip; format: functional; details: route intraperitoneal
in vivo [24] = details: C57BL/6J, mouse, iv, 5 mg/kg; remark: listed apart in the source
in vivo [25] = details: C57BL/6J, mouse, plasma, iv, 5 mg/kg; remark: listed apart in the source
[26] = target: Growth hormone secretagogue receptor type 1 (Homo sapiens, UniProt Q92847); experiment: Agonist activity at ghrelin receptor; format: functional
[27] = AUC (0 to 24 hrs) in brain of C57BL/6J mouse at 5 mg/kg, iv; format: ADME, organism-based; set-up: time < 24 hr, dose 5 mg/kg, route intravenous

Melanocortin receptor 3, sequence (P41968 whole entry): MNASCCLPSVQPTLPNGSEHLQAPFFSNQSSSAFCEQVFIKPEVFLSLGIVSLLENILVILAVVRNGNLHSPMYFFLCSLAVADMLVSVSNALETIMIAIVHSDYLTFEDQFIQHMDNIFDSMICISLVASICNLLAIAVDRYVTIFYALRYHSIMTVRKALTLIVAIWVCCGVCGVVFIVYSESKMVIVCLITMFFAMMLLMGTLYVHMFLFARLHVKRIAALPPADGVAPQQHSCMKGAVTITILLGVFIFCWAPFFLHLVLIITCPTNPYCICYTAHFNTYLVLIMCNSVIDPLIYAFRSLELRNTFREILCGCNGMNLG
T1 sequence (P32245 whole entry): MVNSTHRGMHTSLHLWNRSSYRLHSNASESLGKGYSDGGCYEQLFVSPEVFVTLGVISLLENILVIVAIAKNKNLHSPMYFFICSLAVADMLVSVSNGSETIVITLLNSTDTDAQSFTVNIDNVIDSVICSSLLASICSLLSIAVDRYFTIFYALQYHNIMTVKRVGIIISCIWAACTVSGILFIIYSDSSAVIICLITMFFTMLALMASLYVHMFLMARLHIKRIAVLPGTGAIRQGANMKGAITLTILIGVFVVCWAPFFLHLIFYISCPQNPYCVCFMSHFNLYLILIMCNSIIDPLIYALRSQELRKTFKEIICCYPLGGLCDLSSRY
Melanocyte-stimulating hormone receptor (Homo sapiens), sequence (Q01726 whole entry, looked up): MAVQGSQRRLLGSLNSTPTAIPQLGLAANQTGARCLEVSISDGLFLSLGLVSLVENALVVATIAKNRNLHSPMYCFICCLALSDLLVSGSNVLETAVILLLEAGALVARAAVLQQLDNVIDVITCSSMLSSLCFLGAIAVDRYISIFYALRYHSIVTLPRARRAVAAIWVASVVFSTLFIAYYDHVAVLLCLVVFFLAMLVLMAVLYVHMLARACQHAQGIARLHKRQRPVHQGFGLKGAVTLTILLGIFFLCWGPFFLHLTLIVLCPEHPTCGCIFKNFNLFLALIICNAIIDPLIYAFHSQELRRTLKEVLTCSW
Melanocortin receptor 5, sequence (P33032 whole entry): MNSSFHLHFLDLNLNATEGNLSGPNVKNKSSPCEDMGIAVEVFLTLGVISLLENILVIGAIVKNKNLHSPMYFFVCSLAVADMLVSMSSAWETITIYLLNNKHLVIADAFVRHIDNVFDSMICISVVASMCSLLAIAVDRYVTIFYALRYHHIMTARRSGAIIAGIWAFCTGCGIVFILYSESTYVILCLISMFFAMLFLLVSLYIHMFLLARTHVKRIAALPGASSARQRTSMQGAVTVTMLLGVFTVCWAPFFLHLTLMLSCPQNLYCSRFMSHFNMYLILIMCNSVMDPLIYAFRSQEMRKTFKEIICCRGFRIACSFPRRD
Growth hormone secretagogue receptor type 1, sequence (Q92847 whole entry): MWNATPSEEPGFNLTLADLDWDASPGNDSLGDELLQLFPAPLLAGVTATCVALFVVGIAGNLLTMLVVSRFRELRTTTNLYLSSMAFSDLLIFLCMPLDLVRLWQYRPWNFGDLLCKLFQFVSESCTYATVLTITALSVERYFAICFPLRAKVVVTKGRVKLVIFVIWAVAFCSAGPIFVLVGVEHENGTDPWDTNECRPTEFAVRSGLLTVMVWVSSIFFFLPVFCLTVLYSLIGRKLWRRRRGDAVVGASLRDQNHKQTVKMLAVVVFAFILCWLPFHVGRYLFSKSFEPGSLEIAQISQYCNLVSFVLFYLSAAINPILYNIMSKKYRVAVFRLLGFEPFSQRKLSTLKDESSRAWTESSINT
Melanocortin receptor 4 (Rattus norvegicus, UniProt P70596), sequence (P70596 whole entry): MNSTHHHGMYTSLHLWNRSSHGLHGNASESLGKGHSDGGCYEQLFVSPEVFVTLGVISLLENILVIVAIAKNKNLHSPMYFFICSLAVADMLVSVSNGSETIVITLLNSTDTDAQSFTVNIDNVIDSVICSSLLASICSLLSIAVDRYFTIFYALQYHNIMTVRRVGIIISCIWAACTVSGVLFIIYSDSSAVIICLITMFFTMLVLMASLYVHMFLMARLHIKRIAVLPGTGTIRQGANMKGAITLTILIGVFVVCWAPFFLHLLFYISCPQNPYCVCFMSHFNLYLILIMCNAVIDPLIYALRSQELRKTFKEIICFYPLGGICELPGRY
Melanocortin receptor 4 (Mus musculus, UniProt P56450), sequence (P56450 whole entry): as the sequence (P70596 whole entry) above, with H21Y, S36P, T199S, A239T, P329S, G330S counted along it

SMILES: CC(=O)N[C@H](Cc1ccc(Cl)cc1Cl)C(=O)N1CCN(c2c([C@H](N)CC(C)C)cccc2C(F)(F)F)CC1
- Activity (Melanocortin receptor 4 [1]): Dose-dependent effect
- Ki (Melanocortin receptor 4 [2]): 47 nM

SMILES: CC(C)C[C@H](N)c1cc(C(F)(F)F)ccc1N1CCN(C(=O)[C@@H](Cc2ccc(Cl)cc2)N2CCCC2=O)CC1
- AUC (in vivo [3]): 2680 ng·h/mL
- Ki (Melanocortin receptor 3): 1800 nM
- Tmax (in vivo [4]): 0.5 h
- Activity (Mus musculus [5]): 10%
- logD (physchem): 3.1
- Activity [6]: 31%
- bioavailability (in vivo [7]): 42.4%
- Activity (Mus musculus [8]): 20%
- IC50 (Melanocortin receptor 4 [1]): 510 nM
- Activity (Mus musculus [9]): Active
- AUC (in vivo [10]): 2270 ng·h/mL
- Ki (Melanocortin receptor 4 [2]): 11 nM
- Activity (Mus musculus [11]): 20%
- Vd (in vivo [12]): 5.8 L/kg
- Kp at 1 h (in vivo [13]): 1.27
- Kp at 4 h (in vivo [14]): 0.81
- concentration at 1 h (in vivo [15]): 484 ng/g
- Activity (Mus musculus [16]): Active
- Activity (Mus musculus [17]): Active
- Ki (Melanocortin receptor 5): 990 nM
- Ki (Melanocortin receptor 4 [18]): 9.1 nM
- Ki (Melanocortin receptor 4 [19]): 5.5 nM
- Activity (Mus musculus [20]): Active
- concentration at 4 h (in vivo [21]): 154 ng/g
- Cmax (in vivo [22]): 270 ng/mL
- Activity (Mus musculus [23]): 10%
- half-life (in vivo [24]): 2.2 h
- clearance (in vivo [25]): 31 mL/min/kg
- EC50 [26]: 4100 nM
- Intrinsic activity [26]: 47%

SMILES: CC(=O)N[C@H](Cc1ccc(Cl)cc1Cl)C(=O)N1CCN(c2c(F)cccc2[C@@H](N)CC(C)C)CC1
- Activity (Melanocortin receptor 4 [1]): Dose-dependent effect
- Ki (Melanocortin receptor 4 [2]): 7.5 nM

SMILES: CC(C)C[C@H](N)c1cc(C(F)(F)F)ccc1N1CCN(C(=O)[C@@H](Cc2ccc(Cl)cc2Cl)NC(=O)CCN)CC1
- Activity (Melanocortin receptor 4 [1]): Dose-dependent effect
- Ki (Melanocortin receptor 4 [2]): 1 nM

SMILES: CC(C)C[C@H](N)c1cc(C(F)(F)F)ccc1N1CCN(C(=O)[C@@H](Cc2ccc(Cl)cc2Cl)NC(=O)C2CCNCC2)CC1
- Activity (Melanocortin receptor 4 [1]): Dose-dependent effect
- Ki (Melanocortin receptor 4 [2]): 0.8 nM

SMILES: CC(C)C[C@@H](N)c1cccc(F)c1N1CCN(C(=O)[C@@H](Cc2ccc(Cl)cc2Cl)NC(=O)CN)CC1
- Activity (Melanocortin receptor 4 [1]): Dose-dependent effect
- Ki (Melanocortin receptor 4 [2]): 7.1 nM

SMILES: CC(C)C[C@H](N)c1cccc(C(F)(F)F)c1N1CCN(C(=O)[C@@H](Cc2ccc(Cl)cc2Cl)NC(=O)CCN)CC1
- Activity (Melanocortin receptor 4 [1]): Dose-dependent effect
- Ki (Melanocortin receptor 4 [2]): 2.5 nM

SMILES: CC(C)C[C@H](N)c1cc(C(F)(F)F)ccc1N1CCN(C(=O)[C@@H](Cc2ccc(Cl)cc2Cl)N2CCCC2=O)CC1
- Activity [6]: 21%

SMILES: CC(C)C[C@H](N)c1cc(C(F)(F)F)ccc1N1CCN(C(=O)[C@@H](Cc2ccc(Cl)cc2Cl)NC(=O)CN)CC1
- Activity (Melanocortin receptor 4 [1]): Dose-dependent effect
- Ki (Melanocortin receptor 4 [2]): 1.8 nM

SMILES: CC(C)C[C@@H](N)c1cccc(C(F)(F)F)c1N1CCN(C(=O)[C@@H](Cc2ccc(Cl)cc2Cl)NC(=O)CCN)CC1
- Activity (Melanocortin receptor 4 [1]): Dose-dependent effect
- Ki (Melanocortin receptor 4 [2]): 29 nM

SMILES: CC(C)C[C@H](N)c1cc(C(F)(F)F)ccc1N1CCN(C(=O)[C@H](N)Cc2ccc(Cl)cc2Cl)CC1
- Activity (Melanocortin receptor 4 [1]): Dose-dependent effect
- Ki (Melanocortin receptor 4 [2]): 39 nM

SMILES: CC(C)C[C@H](N)c1cccc(F)c1N1CCN(C(=O)[C@@H](Cc2ccc(Cl)cc2Cl)N2CCCC2=O)CC1
- Activity (Melanocortin receptor 4 [1]): Dose-dependent effect

SMILES: CC(=O)N[C@H](Cc1ccc(Cl)cc1Cl)C(=O)N1CCN(c2ccc(C(F)(F)F)cc2[C@@H](N)CC(C)C)CC1
- Activity (Melanocortin receptor 4 [1]): Dose-dependent effect
- Ki (Melanocortin receptor 4 [2]): 1.8 nM

SMILES: CC(C)C[C@H](N)c1cc(C(F)(F)F)ccc1N1CCN(C(=O)[C@H](Cc2ccc(Cl)cc2)N2CCCC2=O)CC1
- Activity (Melanocortin receptor 4 [1]): Dose-dependent effect
- Ki (Melanocortin receptor 4 [2]): 8.8 nM

SMILES: CC(C)C[C@@H](N)c1cc(C(F)(F)F)ccc1N1CCN(C(=O)[C@@H](Cc2ccc(Cl)cc2Cl)NC(=O)CCN)CC1
- Activity (Melanocortin receptor 4 [1]): Dose-dependent effect
- Ki (Melanocortin receptor 4 [2]): 10 nM

SMILES: CC(C)C[C@@H](N)c1cccc(F)c1N1CCN(C(=O)[C@@H](Cc2ccc(Cl)cc2Cl)NC(=O)CCN)CC1
- Activity (Melanocortin receptor 4 [1]): Dose-dependent effect
- Ki (Melanocortin receptor 4 [2]): 2.3 nM

SMILES: CC(C)C[C@H](N)c1cccc(F)c1N1CCN(C(=O)[C@@H](Cc2ccc(Cl)cc2Cl)NC(=O)CN)CC1
- Activity (Melanocortin receptor 4 [1]): Dose-dependent effect
- Ki (Melanocortin receptor 4 [2]): 3.3 nM

SMILES: CC(C)C[C@H](N)c1cccc(C(F)(F)F)c1N1CCN(C(=O)[C@@H](Cc2ccc(Cl)cc2Cl)NC(=O)CN)CC1
- Activity (Melanocortin receptor 4 [1]): Dose-dependent effect
- Ki (Melanocortin receptor 4 [2]): 3.3 nM

SMILES: CC(=O)N[C@H](Cc1ccc(Cl)cc1Cl)C(=O)N1CCN(c2c(F)cccc2[C@H](N)CC(C)C)CC1
- Activity (Melanocortin receptor 4 [1]): Dose-dependent effect
- Ki (Melanocortin receptor 4 [2]): 6 nM

SMILES: CC(C)C[C@H](N)c1ccccc1N1CCN(C(=O)[C@@H](Cc2ccc(Cl)cc2)N2CCCC2=O)CC1
- Activity (Melanocortin receptor 4 [1]): Dose-dependent effect
- Ki (Melanocortin receptor 4 [2]): 38 nM

SMILES: CC(C)C[C@@H](N)c1cccc(C(F)(F)F)c1N1CCN(C(=O)[C@@H](Cc2ccc(Cl)cc2Cl)NC(=O)CN)CC1
- Activity (Melanocortin receptor 4 [1]): Dose-dependent effect
- Ki (Melanocortin receptor 4 [2]): 49 nM

SMILES: CC(=O)N[C@H](Cc1ccc(Cl)cc1Cl)C(=O)N1CCN(c2ccc(F)cc2[C@H](N)CC(C)C)CC1
- Activity (Melanocortin receptor 4 [1]): Dose-dependent effect
- Ki (Melanocortin receptor 4 [2]): 26 nM

SMILES: CC(C)C[C@H](N)c1cc(C(F)(F)F)ccc1N1CCN(C(=O)[C@@H](Cc2ccc(Cl)cc2Cl)N2CCNCC2=O)CC1
- AUC (in vivo [3]): 3940 ng·h/mL
- Ki (Melanocortin receptor 3): 950 nM
- Tmax (in vivo [4]): 0.5 h
- logD (physchem): 2.8
- Activity [6]: 23%
- bioavailability (in vivo [7]): 19.4%
- IC50 (Melanocortin receptor 4 [1]): 210 nM
- AUC (in vivo [10]): 1530 ng·h/mL
- Ki (Melanocortin receptor 4 [2]): 4.5 nM
- Vd (in vivo [12]): 13 L/kg
- Kp at 1 h (in vivo [13]): 0.07
- AUC(0-t) at 24 h [27]: 1260 ng/g.hr
- Kp at 4 h (in vivo [14]): 0.24
- concentration at 1 h (in vivo [15]): 41 ng/g
- Ki (Melanocortin receptor 5): 360 nM
- concentration at 4 h (in vivo [21]): 46 ng/g
- Cmax (in vivo [22]): 214 ng/mL
- half-life (in vivo [24]): 7.7 h
- clearance (in vivo [25]): 20 mL/min/kg

SMILES: CC(C)C[C@H](N)c1cccc(F)c1N1CCN(C(=O)[C@@H](Cc2ccc(Cl)cc2Cl)NC(=O)CCN)CC1
- Ki (Melanocortin receptor 3): 450 nM
- Activity (Melanocortin receptor 4 [1]): Dose-dependent effect
- Ki (Melanocortin receptor 4 [2]): 0.8 nM
- Ki (Melanocortin receptor 5): 240 nM
